# ChEMBL document CHEMBL5505974, “Design, synthesis, and bioactivity evaluation of novel indole-selenide derivatives as P-glycoprotein inhibitors against multi-drug resistance in MCF-7/ADR cell” (Eur J Med Chem, 2024)
# Activity calls are given as the source filed them. The calls are words filed in the database; no cut-off is given here.
# How the values were obtained:
# MCF7 = test: Cytotoxicity against chemo-sensitive human MCF7 cells assessed as inhibition rate at 5 uM incubated for 48 hrs by CCK8 assay relative to control; format: functional
# NCI/ADR-RES [1] = test: Cytotoxicity against doxorubicin resistant human MCF-7/ADR cells assessed as inhibition rate at 5 uM incubated for 48 hrs by CCK8 assay relative to control; format: functional
# NCI/ADR-RES [2] = test: Reversal fold, ratio of doxorubicin IC50 to doxorubicin IC50 in presence of test compound for reversal of P-gp mediated multidrug resistance in doxorubicin resistant human MCF-7/ADR cells incubated for 48 hrs by CCK-8 assay; format: functional
# NCI/ADR-RES [3] = test: Effect on P-gp expression level in doxorubicin-resistant human MCF-7/ADR cells at 0.5 to 5 uM incubated for 48 hrs by Western blot analysis; format: functional, cell-based; details: dose 0.5-5 µM
# [4] = target: T1, ATP-dependent translocase ABCB1 (Homo sapiens, UniProt P08183); test: Inhibition of P-gp in doxorubicin resistant human MCF-7/ADR cells assessed as increase in UIC-2 binding to cell at 50 uM incubated for 10 mins by UIC-2 reactivity shift assay; format: cell-based
# [5] = target: T1, ATP-dependent translocase ABCB1; test: Inhibition of P-gp-mediated rhodamine-123 efflux in doxorubicin-resistant human MCF-7/ADR cells assessed as increase in Rh123 accumulation incubated for 4 hrs by fluorescence microscopic analysis; format: cell-based; details: at 0.1 to 10 µM, dose 0.1-10 µM
# T1 sequence (P08183 whole entry): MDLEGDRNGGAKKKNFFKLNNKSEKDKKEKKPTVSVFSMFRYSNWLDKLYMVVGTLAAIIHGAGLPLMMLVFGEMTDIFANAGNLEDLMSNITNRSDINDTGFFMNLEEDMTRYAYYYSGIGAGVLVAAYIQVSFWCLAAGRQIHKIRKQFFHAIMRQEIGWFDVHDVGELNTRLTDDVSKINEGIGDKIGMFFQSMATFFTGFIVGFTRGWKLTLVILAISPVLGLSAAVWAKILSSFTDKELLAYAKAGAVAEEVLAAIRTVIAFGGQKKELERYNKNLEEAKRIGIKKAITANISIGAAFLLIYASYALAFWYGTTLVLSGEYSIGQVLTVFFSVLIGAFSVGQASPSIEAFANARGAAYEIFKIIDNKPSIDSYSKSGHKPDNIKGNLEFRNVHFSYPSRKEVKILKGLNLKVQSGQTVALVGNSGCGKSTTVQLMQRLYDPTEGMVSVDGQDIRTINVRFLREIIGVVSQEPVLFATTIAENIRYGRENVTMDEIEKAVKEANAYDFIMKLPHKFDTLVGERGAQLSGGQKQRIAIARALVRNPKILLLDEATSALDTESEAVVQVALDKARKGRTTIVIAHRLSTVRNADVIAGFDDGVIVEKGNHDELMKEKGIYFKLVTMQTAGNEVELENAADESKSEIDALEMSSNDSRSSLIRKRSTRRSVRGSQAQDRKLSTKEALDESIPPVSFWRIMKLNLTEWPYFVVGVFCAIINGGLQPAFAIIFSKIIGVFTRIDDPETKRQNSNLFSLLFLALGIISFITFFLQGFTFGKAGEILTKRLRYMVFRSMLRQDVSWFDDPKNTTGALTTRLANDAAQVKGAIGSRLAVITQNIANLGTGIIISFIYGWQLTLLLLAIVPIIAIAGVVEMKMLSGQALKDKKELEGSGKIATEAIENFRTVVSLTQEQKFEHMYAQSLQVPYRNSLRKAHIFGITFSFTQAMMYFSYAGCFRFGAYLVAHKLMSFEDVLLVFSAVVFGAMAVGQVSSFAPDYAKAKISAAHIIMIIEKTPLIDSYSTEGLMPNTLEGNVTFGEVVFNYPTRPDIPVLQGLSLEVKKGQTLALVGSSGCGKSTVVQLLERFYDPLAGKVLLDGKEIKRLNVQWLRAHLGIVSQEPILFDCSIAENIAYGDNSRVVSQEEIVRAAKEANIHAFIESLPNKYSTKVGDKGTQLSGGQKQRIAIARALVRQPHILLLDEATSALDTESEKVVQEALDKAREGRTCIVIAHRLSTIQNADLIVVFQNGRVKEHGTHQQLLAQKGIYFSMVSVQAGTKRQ
inhibition (INH) [4],inhibition (INH) [5],Compound,inhibition at 5 µM (MCF7) [%],inhibition at 5 µM (NCI/ADR-RES [1]) [%],Ratio IC50 (NCI/ADR-RES [2]),Activity (NCI/ADR-RES [3])
,,COc1ccc(NC(=O)c2cccc([Se]c3c[nH]c4ncccc34)c2)cc1OC,6.3,2,4.2,
,,O=C(NCc1ccccn1)c1cccc([Se]c2c[nH]c3ccc(C(=O)Nc4ccc(F)cc4)cc23)c1,7,10.1,2.7,
,,O=C(NCc1ccccn1)c1ccc([Se]c2c[nH]c3ccccc23)cc1,0.2,2.2,1.65,
,,COc1cc2c(cc1OC)CN(C(=O)c1ccc([Se]c3c[nH]c4ccccc34)cc1)CC2,1.2,3.2,3.06,
,,COc1ccc(NC(=O)c2ccc3[nH]cc([Se]c4cccc(C(=O)Nc5ccc(OC)c(OC)c5)c4)c3c2)cc1,5.2,1.7,5.2,
,,COc1ccc(Cn2cc([Se]c3cccc(C(=O)Nc4ccc(OC)c(OC)c4)c3)c3ccccc32)cc1,4.2,7,16.4,
,,C/C=C/C[C@@H](C)[C@@H](O)[C@H]1C(=O)N[C@@H](CC)C(=O)N(C)CC(=O)N(C)[C@@H](CC(C)C)C(=O)N[C@@H](C(C)C)C(=O)N(C)[C@@H](CC(C)C)C(=O)N[C@@H](C)C(=O)N[C@H](C)C(=O)N(C)[C@@H](CC(C)C)C(=O)N(C)[C@@H](CC(C)C)C(=O)N(C)[C@@H](C(C)C)C(=O)N1C [CYCLOSPORINE],,25.6,,
,,COc1ccc(NC(=O)c2cccc([Se]c3c[nH]c4ccc(-c5cnn(C)c5)cc34)c2)cc1OC,35.6,47,98.4,
,,COc1cc2c(cc1OC)CN(C(=O)c1cccc(Sc3c[nH]c4ccc(-c5cnn(C)c5)cc34)c1)CC2,22.7,19.6,46.3,
,,CNC(=O)c1cccc2c([Se]c3cccc(C(=O)NCc4ccccn4)c3)c[nH]c12,9.2,13.2,2,
,,O=C(NCc1ccccn1)c1cccc([Se]c2c[nH]c3ccc(F)cc23)c1,3.6,13.5,2.7,
,,COc1ccc(CNC(=O)c2ccc([Se]c3c[nH]c4ccccc34)cc2)cc1OC,11.9,18.3,3.61,
,,COc1ccc(NC(=O)c2ccc3[nH]cc([Se]c4cccc(C(=O)NCc5ccccn5)c4)c3c2)cc1,6.6,9,4.4,
,,COc1cc2c(cc1OC)CN(C(=O)c1cccc([Se]c3c[nH]c4ccc(F)cc34)c1)CC2,17.4,26,95.1,
,,COc1ccc(CNC(=O)c2cccc([Se]c3c[nH]c4ccccc34)c2)cc1OC,8.6,15.4,2.4,
,,CNC(=O)c1ccc2[nH]cc([Se]c3cccc(C(=O)NCc4ccccn4)c3)c2c1,15.1,12.8,5.7,
,,COc1cc2c(cc1OC)CN(C(=O)c1cccc([Se]c3c[nH]c4ncccc34)c1)CC2,7.7,5.8,2.8,
,,CNC(=O)c1ccc2c([Se]c3cccc(C(=O)NCc4ccccn4)c3)c[nH]c2c1,13.3,10.8,1.2,

inhibition (INH) [4],inhibition (INH) [5],Compound,inhibition at 5 µM (MCF7) [%],inhibition at 5 µM (NCI/ADR-RES [1]) [%],Ratio IC50 (NCI/ADR-RES [2]),Activity (NCI/ADR-RES [3])
,,COc1ccc(NC(=O)c2ccc([Se]c3c[nH]c4ccccc34)cc2)cc1OC,5.5,7.3,3.98,
,,COc1ccc(-c2ccc(C(=O)N3CCc4cc(OC)c(OC)cc4C3)o2)cc1,11.7,16.3,23.7,
,,COc1cc2c(cc1OC)CN(C(=O)c1cccc([Se]c3c[nH]c4ccc(C(=O)NC(C)C)cc34)c1)CC2,11.2,13,3.9,
,,COc1ccc(NC(=O)c2ccc3[nH]cc([Se]c4cccc(C(=O)N5CCc6cc(OC)c(OC)cc6C5)c4)c3c2)cc1,5.9,8.7,9.1,
,,CNC(=O)c1ccc2[nH]cc([Se]c3cccc(C(=O)N4CCc5cc(OC)c(OC)cc5C4)c3)c2c1,1.2,9.4,5.1,
,,COc1ccc(Cn2cc([Se]c3cccc(C(=O)N4CCc5cc(OC)c(OC)cc5C4)c3)c3ccccc32)cc1,10.5,4.7,25.8,
,,COc1cc2c(cc1OC)CN(CCc1ccc(NC(=O)c3cc(OC)c(OC)cc3NC(=O)c3cnc4ccccc4c3)cc1)CC2,36.9,45.1,261.6,
,,CN(C)CCNC(=O)c1ccc2[nH]cc([Se]c3cccc(C(=O)NCc4ccccn4)c3)c2c1,15.5,20.9,3.6,
,,O=C(NCc1ccccn1)c1cccc([Se]c2c[nH]c3ncccc23)c1,1,3,2,
,,COc1ccc(CNC(=O)c2cccc([Se]c3c[nH]c4ncccc34)c2)cc1OC,15.7,13.4,4,
,,COc1cc2c(cc1OC)CN(C(=O)c1cccc([Se]c3c[nH]c4ccc(C(=O)Nc5ccc(F)cc5)cc34)c1)CC2,9.6,1.3,6.9,
,,COc1cc2c(cc1OC)CN(C(=O)c1cccc([Se]c3c[nH]c4ccccc34)c1)CC2,1.8,11.2,4.12,
,,O=C(NCc1ccccn1)c1cccc([Se]c2c[nH]c3ccccc23)c1,17.5,15.1,8.49,
,,COc1ccc(NC(=O)c2cccc([Se]c3c[nH]c4ccccc34)c2)cc1OC,5.2,9.2,5.67,
,,COc1ccc(CCN(C)CCCC(C#N)(c2ccc(OC)c(OC)c2)C(C)C)cc1OC (centres undefined),8.3,,,
,,COc1cc2c(cc1OC)CN(C(=O)c1cccc([Se]c3c[nH]c4ccc(C(=O)NCCN(C)C)cc34)c1)CC2,9.7,13.6,7.5,
Active,Dose-Dependent Effect,COc1cc2c(cc1OC)CN(C(=O)c1cccc([Se]c3c[nH]c4ccc(-c5cnn(C)c5)cc34)c1)CC2,21.1,33.7,271.7,inactive
